Results reported in publication PMC11879280, “Antimicrobial activity of peptoids against Metallo-β-lactamase-producing Klebsiella pneumoniae, Acinetobacter baumannii, Pseudomonas aeruginosa, and other WHO priority pathogens, including Candida auris” (Journal of Applied Microbiology, 2025).
Where two headings read alike, the source gives them in different places. Square brackets hold non-standard residues; d marks the D form. Peptide text beside a SMILES is read from it. N(tridecyl)Gly = CCCCCCCCCCCCCNCC(=O)O; Nspe = C[C@H](NCC(=O)O)c1ccccc1; Nlys = NCCCCNCC(=O)O

Columns and labels:
C. auris CBS12373 = experiment: Broth microdilution MIC; format: cell-based, Candida auris
[1] = system: ESKAPEE pathogens (all bacteria); experiment: Geometric mean MIC, therapeutic index and selectivity ratio, all bacteria; format: cell-based; conditions: for Geometric mean MIC, all bacteria: across the 23 ESKAPEE strains
Description: (§1) Briefly, bacteria were suspended in cation-adjusted Mueller–Hinton broth (CAMHB; Oxoid, UK) for antibiotics, or MHB (Oxoid, UK) for peptidomimetics to obtain 5 × 10^5 colony forming unit (CFU) ml^−1. […] Positive controls contained only microbes, and blanks contained only media. Microbial suspensions (100 µl) were added to wells, plates wrapped, and incubated at 37°C, 120 rpm for 16–20 h. After incubation, suspensions were removed, log10 diluted, and plated on Trypticase Soya Agar with phosphatidylcholine and Tween 80 to determine minimum bactericidal or fungicidal concentration (MBC or MFC). […] Geometric mean MIC of the peptoids were calculated to evaluate the broad overview of antimicrobial activity across the pathogens.
(§2) The therapeutic indices (TIs) of the compounds were calculated with the use of following formula: […]

Enterobacteriaceae = experiment: Geometric mean MIC, therapeutic index and selectivity ratio, Enterobacteriaceae; format: cell-based; conditions: Enterobacteriaceae (E. coli, K. pneumoniae, and E. aerogenes)
Description: as §1, §2

MBL-producing bacteria = experiment: Geometric mean MIC, therapeutic index and selectivity ratio, MBL-producing bacteria; format: cell-based
Description: as §1
The test was performed as per the manufacturer’s instructions. Briefly, the strips were applied to a lawn culture of bacteria maintained at 1.5 × 10^8 CFU ml^−1 on Mueller–Hinton agar (Oxoid, UK) and incubated for 20 h at 37°C.
as §2

C. auris strains = conditions: two C. auris strains
Description: as §1, §2

[2] = system: horse red blood cells (RBCs); experiment: Haemolysis assay; format: cell-based
Description: The haemolytic activity of the peptidomimetics was performed to determine mammalian cell safety. This assay used horse red blood cells (RBCs) (Sigma–Aldrich, USA) as described previously (Willcox et al. [2008], Chongsiriwatana et al. [2017], Yasir et al. [2019b]). RBCs were washed three times with PBS at 470 g for 5 min. Peptoids (0.5–250 μg ml^−1) were prepared in PBS and added to washed RBCs, then incubated at 37°C for 4 h. After incubation, cells were centrifuged at 1057 g for 10 min, and the supernatant’s OD at 540 nm was measured for lysis. PBS-only RBCs served as the negative control (no haemolysis), and Milli-Q water-treated RBCs as the positive control (100% lysis). Percent haemolysis was calculated as: (ODT − ODNC)/(ODPC − ODNC) × 100, where ODT, ODNC, and ODPC are the absorbances of the test, negative, and positive controls, respectively. This experiment was performed in triplicate.

A. baumannii 006 = system: A. baumannii 006
Description: as §1

A. baumannii 008 = system: A. baumannii 008
Description: as §1

A. baumannii ATCC 19 606 = system: A. baumannii ATCC 19 606
Description: as §1

E. coli 0010 = system: E. coli 0010
Description: as §1

E. coli 005 = system: E. coli 005
Description: as §1

En. cloacae 001 = system: En. cloacae 001
Description: as §1

En. cloacae 005 = system: En. cloacae 005
Description: as §1

K. pneumoniae JIE2709 = system: K. pneumoniae JIE2709
Description: as §1

K. pneumoniae JIE2713 = system: K. pneumoniae JIE2713
Description: as §1

K. pneumoniae JIE4212 = system: K. pneumoniae JIE4212
Description: as §1

P. aeruginosa 216 = system: P. aeruginosa 216
Description: as §1

P. aeruginosa AR-1270 = system: P. aeruginosa AR-1270
Description: as §1

S. aureus 105 = system: S. aureus 105
Description: as §1

S. aureus 38 = system: S. aureus 38
Description: as §1

[3] = CBS 12 373, RPMI 1640 with MOPS, 5 × 10^3 CFU ml^−1, ≥90% reduction (≥50% for fluconazole)
[4] = horse RBCs in PBS, 37°C, 4 h, OD 540 nm, triplicate, best fit curve
[5] = horse RBCs in PBS, 37°C, 4 h, value in brackets
[6] = A. baumannii 006, MHB (melimine/Mel4 with 0.2% BSA, 0.01% acetic acid), mean MIC
[7] = A. baumannii 008, MHB (melimine/Mel4 with 0.2% BSA, 0.01% acetic acid), mean MIC
[8] = A. baumannii ATCC 19 606, MHB (melimine/Mel4 with 0.2% BSA, 0.01% acetic acid), mean MIC
[9] = E. coli 0010, MHB (melimine/Mel4 with 0.2% BSA, 0.01% acetic acid), mean MIC
[10] = E. coli 005, MHB (melimine/Mel4 with 0.2% BSA, 0.01% acetic acid), mean MIC
[11] = En. cloacae 001, MHB (melimine/Mel4 with 0.2% BSA, 0.01% acetic acid), mean MIC
[12] = En. cloacae 005, MHB (melimine/Mel4 with 0.2% BSA, 0.01% acetic acid), mean MIC
[13] = K. pneumoniae JIE2709, MHB (melimine/Mel4 with 0.2% BSA, 0.01% acetic acid), mean MIC
[14] = K. pneumoniae JIE2713, MHB (melimine/Mel4 with 0.2% BSA, 0.01% acetic acid), mean MIC
[15] = K. pneumoniae JIE4212, MHB (melimine/Mel4 with 0.2% BSA, 0.01% acetic acid), mean MIC
[16] = P. aeruginosa 216, MHB (melimine/Mel4 with 0.2% BSA, 0.01% acetic acid), mean MIC
[17] = P. aeruginosa AR-1270, MHB (melimine/Mel4 with 0.2% BSA, 0.01% acetic acid), mean MIC
[18] = S. aureus 105, MHB (melimine/Mel4 with 0.2% BSA, 0.01% acetic acid), mean MIC
[19] = S. aureus 38, MHB (melimine/Mel4 with 0.2% BSA, 0.01% acetic acid), mean MIC

C[C@@H](c1ccccc1)N(CC(N)=O)C(=O)CN(CCCCN)C(=O)CN(C(=O)CN(C(=O)CN(CCCCN)C(=O)CN(C(=O)CN(C(=O)CN(CCCCN)C(=O)CN(C(=O)CN(C(=O)CNCCCCN)[C@@H](C)c1ccccc1)[C@@H](C)c1ccccc1)[C@@H](C)c1ccccc1)[C@@H](C)c1ccccc1)[C@@H](C)c1ccccc1)[C@@H](C)c1ccccc1 [TM6] (H-[Nlys][Nspe][Nspe][Nlys][Nspe][Nspe][Nlys][Nspe][Nspe][Nlys][Nspe]-NH2)
MIC against C. auris (C. auris CBS12373; [3]): 2 µg/mL
MIC against C. auris (C. auris CBS12373; CBS 12 373, value in brackets): 1.2 µM
Geometric mean MIC, all bacteria [1]: 17.6 µg/mL
Geometric mean MIC, all bacteria ([1]; value in brackets): 10.6 µM
Geometric mean MICE (Enterobacteriaceae): 29.1 µg/mL
Geometric mean MICMBL (MBL-producing bacteria): 18.6 µg/mL
Geometric mean MICCA (C. auris strains): 7.9 µg/mL
HD10 (10% haemolytic dose) [2, 4]: 43.2 µg/mL
HD50 (50% haemolytic dose) [2, 4]: > 256 µg/mL
HD10 (10% haemolytic dose) [2, 5]: 26.1 µmol/L
HD50 (50% haemolytic dose) [2, 5]: > 154.4 µmol/L
MIC of peptidomimetics (A. baumannii 006; [6]): 7.8 µg/mL
MIC of peptidomimetics (A. baumannii 006; A. baumannii 006, value in brackets): 4.7 µM
MIC of peptidomimetics (A. baumannii 008; [7]): 15.6 µg/mL
MIC of peptidomimetics (A. baumannii 008; A. baumannii 008, value in brackets): 9.4 µM
MIC of peptidomimetics (A. baumannii ATCC 19 606; [8]): 7.8 µg/mL
MIC of peptidomimetics (A. baumannii ATCC 19 606; A. baumannii ATCC 19 606, value in brackets): 4.7 µM
MIC of peptidomimetics (E. coli 0010; [9]): 62.5 µg/mL
MIC of peptidomimetics (E. coli 0010; E. coli 0010, value in brackets): 37.7 µM
MIC of peptidomimetics (E. coli 005; [10]): 62.5 µg/mL
MIC of peptidomimetics (E. coli 005; E. coli 005, value in brackets): 37.7 µM
MIC of peptidomimetics (En. cloacae 001; [11]): 15.6 µg/mL
MIC of peptidomimetics (En. cloacae 001; En. cloacae 001, value in brackets): 9.4 µM
MIC of peptidomimetics (En. cloacae 005; [12]): 15.6 µg/mL
MIC of peptidomimetics (En. cloacae 005; En. cloacae 005, value in brackets): 9.4 µM
MIC of peptidomimetics (K. pneumoniae JIE2709; [13]): 31.3 µg/mL
MIC of peptidomimetics (K. pneumoniae JIE2709; K. pneumoniae JIE2709, value in brackets): 18.8 µM
MIC of peptidomimetics (K. pneumoniae JIE2713; [14]): 62.5 µg/mL
MIC of peptidomimetics (K. pneumoniae JIE2713; K. pneumoniae JIE2713, value in brackets): 37.7 µM
MIC of peptidomimetics (K. pneumoniae JIE4212; [15]): 15.6 µg/mL
MIC of peptidomimetics (K. pneumoniae JIE4212; K. pneumoniae JIE4212, value in brackets): 9.4 µM
MIC of peptidomimetics (P. aeruginosa 216; [16]): 15.6 µg/mL
MIC of peptidomimetics (P. aeruginosa 216; P. aeruginosa 216, value in brackets): 9.4 µM
MIC of peptidomimetics (P. aeruginosa AR-1270; [17]): 31.3 µg/mL
MIC of peptidomimetics (P. aeruginosa AR-1270; P. aeruginosa AR-1270, value in brackets): 18.8 µM
MIC of peptidomimetics (S. aureus 105; [18]): 7.8 µg/mL
MIC of peptidomimetics (S. aureus 105; S. aureus 105, value in brackets): 4.7 µM
MIC of peptidomimetics (S. aureus 38; [19]): 7.8 µg/mL
MIC of peptidomimetics (S. aureus 38; S. aureus 38, value in brackets): 4.7 µM

CCCCCCCCCCCCCNCC(=O)N(CCCCN)CC(=O)N(CC(=O)N(CC(=O)N(CCCCN)CC(=O)N(CCCCN)CC(N)=O)[C@@H](C)c1ccccc1)[C@@H](C)c1ccccc1 [TM15] (H-[N(tridecyl)Gly][Nlys][Nspe][Nspe][Nlys][Nlys]-NH2)
MIC against C. auris (C. auris CBS12373; [3]): 3.9 µg/mL
MIC against C. auris (C. auris CBS12373; CBS12373): 4.0 µM
Geometric mean MIC, all bacteria [1]: 32.2 µg/mL
Geometric mean MIC, all bacteria ([1]; value in brackets): 33.4 µM
Fold increase in geometric mean MIC relative to TM8 ([1]; bacteria): 4 fold
Geometric mean MICE (Enterobacteriaceae): 50.8 µg/mL
Geometric mean MICMBL (MBL-producing bacteria): 52.6 µg/mL
HD10 (10% haemolytic dose) [2]: 24.5 µmol/L
HD50 (50% haemolytic dose) [2]: 89.7 µmol/L
HD10 (10% haemolytic dose) ([2]; red cells of horse, 4 h): 23.6 µg/mL
HD50 (50% haemolytic dose) ([2]; red cells of horse, 4 h): 86.4 µg/mL
MIC of peptidomimetics (A. baumannii 006; 006): 64.9 µM
MIC of peptidomimetics (A. baumannii 006; [6]): 62.5 µg/mL
MIC of peptidomimetics (A. baumannii 008; 008): 32.5 µM
MIC of peptidomimetics (A. baumannii 008; [7]): 31.3 µg/mL
MIC of peptidomimetics (A. baumannii ATCC 19 606; [8]): 62.5 µg/mL
MIC of peptidomimetics (A. baumannii ATCC 19 606; ATCC 19): 64.9 µM
MIC of peptidomimetics (E. coli 0010; 0010): 64.9 µM
MIC of peptidomimetics (E. coli 0010; [9]): 62.5 µg/mL
MIC of peptidomimetics (E. coli 005; 005): 64.9 µM
MIC of peptidomimetics (E. coli 005; [10]): 62.5 µg/mL
MIC of peptidomimetics (En. cloacae 001): 16.2 µM
MIC of peptidomimetics (En. cloacae 001; [11]): 15.6 µg/mL
MIC of peptidomimetics (En. cloacae 005): 32.5 µM
MIC of peptidomimetics (En. cloacae 005; [12]): 31.3 µg/mL
MIC of peptidomimetics (K. pneumoniae JIE2709; JIE2709): 129.8 µM
MIC of peptidomimetics (K. pneumoniae JIE2709; [13]): 125 µg/mL
MIC of peptidomimetics (K. pneumoniae JIE2713; JIE2713): 129.8 µM
MIC of peptidomimetics (K. pneumoniae JIE2713; [14]): 125 µg/mL
MIC of peptidomimetics (K. pneumoniae JIE4212; JIE4212): 64.9 µM
MIC of peptidomimetics (K. pneumoniae JIE4212; [15]): 62.5 µg/mL
MIC of peptidomimetics (P. aeruginosa 216; 216): 16.2 µM
MIC of peptidomimetics (P. aeruginosa 216; [16]): 15.6 µg/mL
MIC of peptidomimetics (P. aeruginosa AR-1270; AR-1270): 32.5 µM
MIC of peptidomimetics (P. aeruginosa AR-1270; [17]): 31.3 µg/mL
MIC of peptidomimetics (S. aureus 105; 105): 8.1 µM
MIC of peptidomimetics (S. aureus 105; [18]): 7.8 µg/mL
MIC of peptidomimetics (S. aureus 38; 38): 8.1 µM
MIC of peptidomimetics (S. aureus 38; [19]): 7.8 µg/mL
